Like-named read-outs stand apart in the source and are kept apart here.
Legend:
[1] = system: K562 (chronic myelogenous leukaemia); test: Effect of compounds on tumor cell lines (assay of Latham et al.), K562; assay type: cell-based; settings: Homo sapiens, Table 4, K562 cells, examined 96 hours after treatment, 1 μM to 100 μM in DMSO
Method in brief: (§1)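 After 96 h of exposure to compound (1–100 μM in DMSO; one compound at 0.1–100 μM), effects were scored by inverted-microscope inspection, with trypan blue viable counts by hemacytometer when required. Cells were seeded at 2.5×10^4 per well and dosed 24 h after plating.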

[2] = system: DU145 (prostate cancer); test: Effect of compounds on tumor cell lines (assay of Latham et al.), DU145; assay type: cell-based; settings: Homo sapiens, DU-145; Table 4; DU145 cells, examined 96 hours after treatment, 1 μM to 100 μM in DMSO; read-out: DU 145 potency (IC50)
Method in brief: as §1

[3] = read-out: K 562 potency (IC50), given as number

SMILES | melting point | IC50 ([1]; read-out: K 562 potency (IC50)) | IC50 [2] | IC50 [1, 3]
Cc1ccsc1/C=C(\C(=O)c1ccc(Cl)cc1)S(=O)(=O)Cc1ccc(F)cc1 [Example 407] | 146 to 158 °C | 1 to 10 µM | 10 to 25 µM | 
Cc1ccc(CS(=O)(=O)/C(=C/c2sccc2C)C(=O)c2ccc(Cl)cc2)cc1 [Example 431] | 98 to 105 °C | 25 to 50 µM | 25 to 50 µM | 
COc1cc(OC)c(/C=C(\C(=O)c2ccc(Br)cc2)S(=O)(=O)Cc2ccc(Cl)cc2)c(OC)c1 [Example 378] | 207 to 210 °C | 25 to 50 µM | 25 to 50 µM | 
O=C(/C(=C\c1ccc(O)cc1)S(=O)(=O)Cc1ccc(Cl)c(Cl)c1)c1ccc(Cl)cc1 [Example 366] | 195 to 198 °C | 10 to 25 µM | 10 to 25 µM | 
O=C(/C(=C\c1ccc(I)cc1)S(=O)(=O)Cc1ccc(I)cc1)c1ccc(Br)cc1 [Example 420, (E)-1-(4-bromophenyl)-2-(4-iodobenzylsulfonyl)-3-(4-iodophenyl)-prop-2-en-1-one] | 160 to 162 °C |  | 25 to 50 µM | > 50 µM
COc1ccc(/C=C(\C(=O)c2ccc(Br)cc2)S(=O)(=O)Cc2ccc(Cl)cc2)cc1 [Example 395] | 152 to 155 °C | 10 to 25 µM | 25 to 50 µM | 
COc1ccccc1/C=C(\C(=O)c1ccc([N+](=O)[O-])cc1)S(=O)(=O)Cc1ccc(Cl)cc1 [Example 384] | 136 to 141 °C | 10 to 25 µM | 10 to 25 µM | 
Cc1ccc(CS(=O)(=O)/C(=C/c2ccc(C)s2)C(=O)c2ccc(Cl)cc2)cc1 [Example 440] | 171 to 178 °C | 25 to 50 µM | 25 to 50 µM | 
CN(C)c1ccc(/C=C(\C(=O)c2ccc(Br)cc2)S(=O)(=O)Cc2ccc(F)cc2)cc1 [Example 408] | 155 to 162 °C | 50 to 100 µM | 50 to 100 µM | 
COc1ccsc1/C=C(\C(=O)c1ccc(Br)cc1)S(=O)(=O)Cc1ccc(Cl)cc1 [Example 387] | 128 to 136 °C | 25 to 50 µM | 50 to 100 µM | 
Cc1ccc(CS(=O)(=O)/C(=C/c2c[nH]c3ccccc23)C(=O)c2ccc(Cl)cc2)cc1 [Example 430] | 160 to 165 °C | > 100 µM | 25 to 50 µM | 
Cc1ccc(/C=C(\C(=O)c2ccc([N+](=O)[O-])cc2)S(=O)(=O)Cc2ccc(Cl)cc2)s1 [Example 397] | 180 to 182 °C | 10 to 25 µM | 25 to 50 µM | 
O=C(/C(=C\c1cc(Cl)cc(Cl)c1Cl)S(=O)(=O)Cc1ccc(Cl)cc1)c1ccc(Br)cc1 [Example 376] | 181 to 188 °C | 1 to 10 µM | 1 to 10 µM | 
COc1cc(OC)c(/C=C(\C(=O)c2ccc(Cl)cc2)S(=O)(=O)Cc2ccc(F)cc2)c(OC)c1 [Example 400] | 134 to 138 °C | 1 to 10 µM | 25 to 50 µM | 
O=C(/C(=C\c1ccc(O)c([N+](=O)[O-])c1)S(=O)(=O)Cc1ccc(Br)cc1)c1ccc(Br)cc1 [Example 374] | 110 to 112 °C | 1 to 10 µM | 10 to 25 µM | 
COc1cc(/C=C(\C(=O)c2ccc(Cl)cc2)S(=O)(=O)Cc2ccccc2Cl)cc(OC)c1 [Example 359] | 133 to 138 °C | 50 to 100 µM | > 100 µM | 
O=C(/C(=C\c1ccc(I)cc1)S(=O)(=O)Cc1ccc(I)cc1)c1ccc(I)cc1 [Example 421, (E)-1-(4-iodophenyl)-2-(4-iodobenzylsulfonyl)-3-(4-iodophenyl)-prop-2-en-1-one] | 175 to 177 °C |  | 25 to 50 µM | > 50 µM
O=C(/C(=C\c1ccc(Br)cc1)S(=O)(=O)Cc1ccc(F)cc1)c1ccc(Br)cc1 [Example 409] | 164 to 168 °C | 10 to 25 µM | 25 to 50 µM | 
Cc1ccc(CS(=O)(=O)/C(=C/c2ccc(Br)cc2)C(=O)c2ccc(Cl)cc2)cc1 [Example 433] | 160 to 165 °C | 10 to 25 µM | 25 to 50 µM | 
COc1cc(OC)c(/C=C(\C(=O)c2ccc(Cl)cc2)S(=O)(=O)Cc2ccccc2Cl)c(OC)c1 [Example 357] | 185 to 192 °C | 25 to 50 µM | > 100 µM | 
COc1cc(OC)c(/C=C(\C(=O)c2ccc([N+](=O)[O-])cc2)S(=O)(=O)Cc2ccc(Cl)cc2)c(OC)c1 [Example 379] | 62 to 64 °C | 10 to 25 µM | 10 to 25 µM | 
Cc1ccsc1/C=C(\C(=O)c1ccc([N+](=O)[O-])cc1)S(=O)(=O)Cc1ccc(Cl)cc1 [Example 389] | 174 to 179 °C | 1 to 10 µM | 1 to 10 µM | 
CCOc1ccc(/C=C(\C(=O)c2ccc(Cl)cc2)S(=O)(=O)Cc2ccc(F)cc2)cc1OC [Example 412] | 145 to 149 °C | 25 to 50 µM | 50 to 100 µM | 

Source: patent US8808702B2, “Sulfide, sulfoxide and sulfone chalcone analogues, derivatives thereof and therapeutic uses thereof” (Temple University-of the Commonwealth System of Higher …, priority 2006, dated 2014)
